According to patent US12077503B2, “Substituted cyclic amides and their use as herbicides” (FMC CORPORATION, priority 2015, dated 2024):
Read-outs that look alike come from different tables or passages of the source.

Experiments:
Assay type in all cases: in vivo
[1] = test system: barnyardgrass (Echinochloa crus-galli); test: Test A preemergence; conditions: Echinochloa crus-galli, pre-emergence, 240 h; for pest or weed control at 125 g/ha: 125 g ai/ha; for pest or weed control at 500 g/ha: 500 g ai/ha
In short: (§1)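 Each rating is a visual injury score from 0 to 100 given about 10 d after treatment, judged against untreated controls kept alongside in the greenhouse. In loam soil–sand blend, seeds got a preemergence directed soil spray, while postemergence plants were 2 to 10 cm tall at spraying.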

rice (Oryra sativa) = test: Test B flooded paddy test; conditions: Oryza sativa, 250 g ai/ha, Flood; 0 to 100 scale where 0 is no effect and 100 is complete control; read-out: Rice plant response rating
In short: (§2)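 Compound goes directly into floodwater once pots are flooded 3 cm above soil, targeting plants at two leaves; the water depth is then held for the test duration. Plants sit 13–15 d in a greenhouse and are rated visually, 100 denoting complete control.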

[2] = test system: ducksalad (Heteranthera limosa); test: Test B flooded paddy test; conditions: Heteranthera limosa, 250 g ai/ha, Flood; 0 to 100 scale where 0 is no effect and 100 is complete control; read-out: Ducksalad plant response rating
In short: as §2

[3] = test system: sedge, umbrella (small-flower umbrella sedge, Cyperus difformis); test: Test B flooded paddy test; conditions: Cyperus difformis, 250 g ai/ha, Flood; 0 to 100 scale where 0 is no effect and 100 is complete control; read-out: Sedge, Umbrella plant response rating
In short: as §2

[4] = test system: barnyardgrass (Echinochloa crus-galli); test: Test B flooded paddy test; conditions: Echinochloa crus-galli, 250 g ai/ha, Flood; 0 to 100 scale where 0 is no effect and 100 is complete control; read-out: Barnyardgrass plant response rating
In short: as §2

[5] = test system: Galium (catchweed bedstraw, Galium aparine); test: Test A postemergence; conditions: Galium, post-emergence, 240 h, postemergence; for pest or weed control at 125 g/ha: 125 g ai/ha, visual injury on 0 to 100 scale (0 no effect, 100 complete control); for pest or weed control at 500 g/ha: 500 g ai/ha
In short: as §1

[6] = test system: ragweed (common ragweed, Ambrosia elatior); test: Test A postemergence; conditions: Ambrosia artemisiifolia, post-emergence, 240 h, postemergence; for pest or weed control at 125 g/ha: 125 g ai/ha; for pest or weed control at 500 g/ha: 500 g ai/ha, 0 to 100 scale, 0 is no effect, 100 is complete control
In short: as §1

[7] = test system: wheat (Triticum aestivum); test: Test A postemergence; conditions: Triticum aestivum, post-emergence, 240 h, postemergence; for plant injury at 125 g/ha: 125 g ai/ha; for plant injury at 500 g/ha: 500 g ai/ha, 0 to 100 scale, 0 is no effect, 100 is complete control
In short: as §1

Kochia (Kochia scoparia) = test: Test A postemergence; conditions: Bassia scoparia, post-emergence, 240 h, postemergence; for pest or weed control at 125 g/ha: 125 g ai/ha, visual injury on 0 to 100 scale (0 no effect, 100 complete control); for pest or weed control at 500 g/ha: 500 g ai/ha
In short: as §1

[8] = test system: barnyardgrass (Echinochloa crus-galli); test: Test A postemergence; conditions: Echinochloa crus-galli, post-emergence, 240 h, postemergence; for pest or weed control at 125 g/ha: 125 g ai/ha, visual injury on 0 to 100 scale (0 no effect, 100 complete control); for pest or weed control at 500 g/ha: 500 g ai/ha
In short: as §1

[9] = test system: giant foxtail (Setaria faberii); test: Test A postemergence; conditions: Setaria faberi, post-emergence, 240 h, postemergence; for pest or weed control at 125 g/ha: 125 g ai/ha, visual injury on 0 to 100 scale (0 no effect, 100 complete control); for pest or weed control at 500 g/ha: 500 g ai/ha
In short: as §1

corn (Zea mays) = test: Test A postemergence; conditions: Zea mays, post-emergence, 240 h, postemergence; for plant injury at 125 g/ha: 125 g ai/ha, visual injury on 0 to 100 scale (0 no effect, 100 complete control); for plant injury at 125 g/ha / plant injury at 500 g/ha: read-out: Corn plant response rating; for plant injury at 500 g/ha: 0 to 100 scale, 0 is no effect, 100 is complete control
In short: as §1

[10] = test system: ryegrass, Italian (Italian ryegrass, Lolium multiflorum); test: Test A postemergence; conditions: Lolium multiflorum, post-emergence, 240 h, postemergence; for pest or weed control at 125 g/ha: 125 g ai/ha; for pest or weed control at 500 g/ha: 500 g ai/ha, 0 to 100 scale, 0 is no effect, 100 is complete control
In short: as §1

[11] = test system: pigweed (Amaranthus retroflexus); test: Test A postemergence; conditions: Amaranthus retroflexus, post-emergence, 240 h, postemergence; for pest or weed control at 125 g/ha: 125 g ai/ha; for pest or weed control at 500 g/ha: 500 g ai/ha, 0 to 100 scale, 0 is no effect, 100 is complete control
In short: as §1

[12] = test system: blackgrass (Alopecurus myosuroides); test: Test A postemergence; conditions: Alopecurus myosuroides, post-emergence, 240 h, postemergence; for pest or weed control at 125 g/ha: 125 g ai/ha, visual injury on 0 to 100 scale (0 no effect, 100 complete control); for pest or weed control at 500 g/ha: 500 g ai/ha
In short: as §1

[13] = preemergence, visual injury rating about 10 d after treatment, 0 to 100 scale (0 no effect, 100 complete control), read-out: Barnyardgrass plant response rating
[14] = approx. 10 d, read-out: Galium plant response rating
[15] = visual injury on 0 to 100 scale (0 no effect, 100 complete control), approx. 10 d, read-out: Ragweed plant response rating
[16] = visual injury on 0 to 100 scale (0 no effect, 100 complete control), approx. 10 d, read-out: Wheat plant response rating
[17] = approx. 10 d, read-out: Kochia plant response rating
[18] = approx. 10 d, read-out: Barnyardgrass plant response rating
[19] = approx. 10 d, read-out: Foxtail, Giant plant response rating
[20] = visual injury on 0 to 100 scale (0 no effect, 100 complete control), approx. 10 d, read-out: Ryegrass, Italian plant response rating
[21] = visual injury on 0 to 100 scale (0 no effect, 100 complete control), approx. 10 d, read-out: Pigweed plant response rating
[22] = approx. 10 d, read-out: Blackgrass plant response rating
[23] = preemergence, 0 to 100 scale where 0 is no effect and 100 is complete control, approx. 10 d, read-out: Barnyardgrass plant response rating
[24] = 0 to 100 scale, 0 is no effect, 100 is complete control, read-out: Galium plant response rating
[25] = read-out: Ragweed plant response rating
[26] = read-out: Wheat plant response rating
[27] = 0 to 100 scale, 0 is no effect, 100 is complete control, read-out: Kochia plant response rating
[28] = 0 to 100 scale, 0 is no effect, 100 is complete control, read-out: Barnyardgrass plant response rating
[29] = 0 to 100 scale, 0 is no effect, 100 is complete control, read-out: Foxtail, Giant plant response rating
[30] = read-out: Ryegrass, Italian plant response rating
[31] = read-out: Pigweed plant response rating
[32] = 0 to 100 scale, 0 is no effect, 100 is complete control, read-out: Blackgrass plant response rating

| Compound | pest or weed control at 500 g/ha [1, 13] [%] | pest or weed control at 250 g/ha (rice (Oryra sativa)) [%] | pest or weed control at 250 g/ha [2] [%] | pest or weed control at 250 g/ha [3] [%] | pest or weed control at 250 g/ha [4] [%] | pest or weed control at 125 g/ha [5, 14] [%] | pest or weed control at 125 g/ha [6, 15] [%] | plant injury at 125 g/ha [7, 16] [%] | pest or weed control at 125 g/ha (Kochia (Kochia scoparia); [17]) [%] | pest or weed control at 125 g/ha [8, 18] [%] | pest or weed control at 125 g/ha [9, 19] [%] | plant injury at 125 g/ha (corn (Zea mays); approx. 10 d) [%] | pest or weed control at 125 g/ha [10, 20] [%] | pest or weed control at 125 g/ha [11, 21] [%] | pest or weed control at 125 g/ha [12, 22] [%] | pest or weed control at 125 g/ha [1, 23] [%] | pest or weed control at 500 g/ha [5, 24] [%] | pest or weed control at 500 g/ha [6, 25] [%] | plant injury at 500 g/ha [7, 26] [%] | pest or weed control at 500 g/ha (Kochia (Kochia scoparia); [27]) [%] | also measured |
| --- | --- | --- | --- | --- | --- | --- | --- | --- | --- | --- | --- | --- | --- | --- | --- | --- | --- | --- | --- | --- | --- |
| O=C(Nc1ccccc1F)[C@H]1C(=S)NC[C@@H]1c1ccc(C(F)(F)F)cc1 (racemic) [Compound 1047] | 80 | 0 | 0 | 0 | 0 | 0 | 0 | 0 | 0 | 40 | 50 | 0 | 0 | 0 | 0 | – | – | – | – | – | pest or weed control at 125 g/ha ([1]; Preemergence, visual injury rating after approximately 10 d, read-out: Barnyardgrass plant response rating (0 to 100 scale, 0 is no effect, 100 is complete control)): 30%; pest or weed control at 500 g/ha ([5]; visual injury, 0 to 100 scale (0 no effect, 100 complete control), approx. 10 d, read-out: Plant response rating, Galium): 50%; pest or weed control at 500 g/ha (Kochia (Kochia scoparia); visual injury, 0 to 100 scale (0 no effect, 100 complete control), approx. 10 d, read-out: Plant response rating, Kochia): 20%; pest or weed control at 500 g/ha ([8]; visual injury, 0 to 100 scale (0 no effect, 100 complete control), approx. 10 d, read-out: Plant response rating, Barnyardgrass): 80%; pest or weed control at 500 g/ha ([9]; visual injury, 0 to 100 scale (0 no effect, 100 complete control), approx. 10 d, read-out: Plant response rating, Foxtail, Giant): 80%; Corn plant response rating (crop injury, 0 = no effect, 100 = complete kill) at 500 g/ha (corn (Zea mays); 500 g ai/ha, visual injury, 0 to 100 scale (0 no effect, 100 complete control), approx. 10 d): 0%; pest or weed control at 500 g/ha ([12]; visual injury, 0 to 100 scale (0 no effect, 100 complete control), approx. 10 d, read-out: Plant response rating, Blackgrass): 0% |
| C/C=C/N1C[C@@H](c2cccc(C(F)(F)F)c2)[C@H](C(=O)Nc2ccccc2F)C1=O (racemic) [Compound 1094] | 80 | 0 | 0 | 0 | 45 | 20 | 0 | 20 | 0 | 40 | 30 | 0 | 0 | 0 | 0 | 0 | 20 | 0 | 30 | 0 | pest or weed control at 500 g/ha [8, 28]: 80%; pest or weed control at 500 g/ha [9, 29]: 80%; plant injury at 500 g/ha (corn (Zea mays); 500 g ai/ha): 0%; pest or weed control at 500 g/ha [10, 30]: 20%; pest or weed control at 500 g/ha [11, 31]: 20%; pest or weed control at 500 g/ha [12, 32]: 30% |
| CN1C[C@H](c2ccc(C(F)(F)F)cc2)[C@@](F)(C(=O)Nc2cccc(F)c2F)C1=O (racemic) [Compound 1151] | – | 0 | 0 | 0 | 0 | 20 | – | – | 30 | 80 | 70 | 60 | – | – | 30 | 90 | 60 | 30 | 60 | 60 | pest or weed control at 500 g/ha ([1]; preemergence, 0 to 100 scale where 0 is no effect and 100 is complete control, read-out: Barnyardgrass plant response rating): 100%; pest or weed control at 125 g/ha ([6]; visual injury vs untreated controls after approx. 10 d, 0 = no effect, 100 = complete control, read-out: Ragweed plant response rating (0 to 100 scale)): 0%; plant injury at 125 g/ha ([7]; visual injury vs untreated controls after approx. 10 d, 0 = no effect, 100 = complete control, read-out: Wheat plant response rating (0 to 100 scale)): 40%; pest or weed control at 500 g/ha [8, 28]: 90%; pest or weed control at 500 g/ha [9, 29]: 80%; plant injury at 500 g/ha (corn (Zea mays); 500 g ai/ha): 80%; pest or weed control at 125 g/ha ([10]; visual injury vs untreated controls after approx. 10 d, 0 = no effect, 100 = complete control, read-out: Ryegrass, Italian plant response rating (0 to 100 scale)): 30%; pest or weed control at 500 g/ha [10, 30]: 50%; pest or weed control at 125 g/ha ([11]; visual injury vs untreated controls after approx. 10 d, 0 = no effect, 100 = complete control, read-out: Pigweed plant response rating (0 to 100 scale)): 20%; pest or weed control at 500 g/ha [11, 31]: 80%; pest or weed control at 500 g/ha [12, 32]: 60% |
